# From patent US11931424B2, “Combination MCL-1 inhibitors with anti-body drug conjugates” (Gilead Sciences, Inc., priority 2021, dated 2024)
# Test system: panel of breast cancer cell lines
# Assay: Compound A with targeted agents and chemotherapies, 72-hour in vitro proliferation assays
# Assay type: cell-based
# Conditions: 72-hour proliferation
# [1] = BT-20 cell line, compound A × partner
# [2] = CAL-51 cell line, compound A × partner
# [3] = CAL-85-1 cell line, compound A × partner
# [4] = CAL-120 cell line, compound A × partner
# [5] = CAL-148 cell line, compound A × partner
# [6] = CAMA-1 cell line, compound A × partner
# [7] = DU-4475 cell line, compound A × partner
# [8] = EVSA-T cell line, compound A × partner
# [9] = HCC1143 cell line, compound A × partner
# [10] = MCF7 cells, Compound A × partner agent
compound,measurement,setting,value
CCN1CCN(Cc2ccc(Nc3ncc(F)c(-c4cc(F)c5nc(C)n(C(C)C)c5c4)n3)nc2)CC1 [Abemaciclib],Best CI,[1],0.79
same,Bliss Volume,[1],3.95
same,HSA volume,[1],5.53
same,Loewe Volume,[1],5.32
same,Best CI,[2],1.31
same,Bliss Volume,[2],1.55
same,HSA volume,[2],−0.56
same,Loewe Volume,[2],2.06
same,Synergy Score,[2],2.51
same,Best CI,[3],0.77
same,Bliss Volume,[3],2.60
same,HSA volume,[3],3.28
same,Loewe Volume,[3],3.04
same,Synergy Score,[3],6.47
same,Best CI,[4],1.78
same,Bliss Volume,[4],−5.16
same,HSA volume,[4],−5.98
same,Loewe Volume,[4],−5.00
same,Synergy Score,[4],1.03
same,Best CI,[5],0.70
same,Bliss Volume,[5],6.48
same,HSA volume,[5],5.91
same,Loewe Volume,[5],6.28
same,Synergy Score,[5],15.50
same,Best CI,[6],0.32
same,Bliss Volume,[6],−6.25
same,HSA volume,[6],−10.24
same,Loewe Volume,[6],−10.33
same,Synergy Score,[6],1.56
same,Best CI,[7],1.25
same,Bliss Volume,[7],6.92
same,HSA volume,[7],5.32
same,Loewe Volume,[7],5.72
same,Synergy Score,[7],5.07
same,Best CI,[8],0.64
same,Bliss Volume,[8],0.41
same,HSA volume,[8],−2.86
same,Loewe Volume,[8],−2.48
same,Synergy Score,[8],0.77
same,Best CI,"HCC38, compound A × partner",0.83
same,Bliss Volume,"HCC38, compound A × partner",−4.64
same,HSA volume,"HCC38, compound A × partner",−4.71
same,Loewe Volume,"HCC38, compound A × partner",−4.54
same,Synergy Score,"HCC38, compound A × partner",6.14
same,Best CI,"HCC70, compound A × partner",0.92
same,Bliss Volume,"HCC70, compound A × partner",10.18
same,HSA volume,"HCC70, compound A × partner",6.99
same,Loewe Volume,"HCC70, compound A × partner",8.33
same,Synergy Score,"HCC70, compound A × partner",18.15
same,Best CI,[9],0.41
same,Bliss Volume,[9],10.33
same,HSA volume,[9],2.87
same,Loewe Volume,[9],9.43
same,Synergy Score,[9],7.43
same,Best CI,"HCC1569, compound A × partner",0.18
same,Bliss Volume,"HCC1569, compound A × partner",14.07
same,HSA volume,"HCC1569, compound A × partner",13.17
same,Loewe Volume,"HCC1569, compound A × partner",14.38
same,Synergy Score,"HCC1569, compound A × partner",19.73
same,Bliss Volume,"HCC1806, compound A × partner",4.89
same,HSA volume,"HCC1806, compound A × partner",0.30
same,Loewe Volume,"HCC1806, compound A × partner",3.10
same,Synergy Score,"HCC1806, compound A × partner",4.43
same,Best CI,"HCC1937, compound A × partner",0.26
same,Bliss Volume,"HCC1937, compound A × partner",16.67
same,Loewe Volume,"HCC1937, compound A × partner",16.44
same,Synergy Score,"HCC1937, compound A × partner",28.56
same,Best CI,"HCC1954, compound A × partner",0.89
same,Bliss Volume,"HCC1954, compound A × partner",1.45
same,HSA volume,"HCC1954, compound A × partner",−0.39
same,Loewe Volume,"HCC1954, compound A × partner",−1.29
same,Synergy Score,"HCC1954, compound A × partner",12.74
same,Best CI,"HCC2218, compound A × partner",1.44
same,Bliss Volume,"HCC2218, compound A × partner",−2.40
same,HSA volume,"HCC2218, compound A × partner",−5.74
same,Loewe Volume,"HCC2218, compound A × partner",−6.61
same,Synergy Score,"HCC2218, compound A × partner",4.14
same,Best CI,"HDQ-P1, compound A × partner",0.82
same,Bliss Volume,"HDQ-P1, compound A × partner",−0.79
same,HSA volume,"HDQ-P1, compound A × partner",−0.19
same,Loewe Volume,"HDQ-P1, compound A × partner",0.43
same,Synergy Score,"HDQ-P1, compound A × partner",2.48
same,Best CI,"HMC-1-8, compound A × partner",0.30
same,Bliss Volume,"HMC-1-8, compound A × partner",24.27
same,HSA volume,"HMC-1-8, compound A × partner",13.46
same,Loewe Volume,"HMC-1-8, compound A × partner",13.14
same,Synergy Score,"HMC-1-8, compound A × partner",24.23
same,Best CI,"JIMT-1, compound A × partner",1.23
same,Bliss Volume,"JIMT-1, compound A × partner",1.74
same,HSA volume,"JIMT-1, compound A × partner",1.30
same,Loewe Volume,"JIMT-1, compound A × partner",1.54
same,Synergy Score,"JIMT-1, compound A × partner",1.34
same,Best CI,"KPL-1, compound A × partner",0.77
same,Bliss Volume,"KPL-1, compound A × partner",−3.02
same,HSA volume,"KPL-1, compound A × partner",−1.63
same,Loewe Volume,"KPL-1, compound A × partner",−2.87
same,Best CI,[10],1.06
same,Bliss Volume,[10],4.62
same,HSA volume,[10],4.76
same,Synergy Score,[10],8.46
